For one assay, the target named is c-Cbl (Homo sapiens (Human), UniProt P22681). Kind of assay: C-cbl LCK Ub TR-FRET assay (C-cbl Lck HTRF). The class given is biochemical. As to the method: (§1) Compounds were 3-fold serially diluted in DMSO in a 384-well polypropylene plate (#P-05525-BC; Labcyte) to generate a source plate with 10 concentrations of each compound, top concentration=2 mM. 80 nL of DMSO or compounds were transferred to each well of a black 384-well ProxiPlate (#6008260; PerkinElmer) using a Labcyte Echo. 1× assay buffer (50 mM HEPES pH7.0, 100 mM NaCl, 0.01% BSA, 0.01% Triton-X100, 1 mM DTT), 2× enzyme solution (16 nM Biotin-Cbl-b or 12 nM Biotin-c-Cbl in 1× assay buffer), 2× kinase mixture (120 nM His-LCK, 1 mM ATP, 10 mM MgCl2 in assay buffer) and 2.33× detection mixture (4.66× solution 1: 163 nM Anti-HA-D2 antibody (#610HADAB; PerkinElmer), 27.96 nM Streptavidin-EU (#AD0062; PerkinElmer), 1.398 mM EDTA in 1× assay buffer+4.66× solution 2: 2.796 μM UBE2D2/Methylated-HA-Ubiquitin thioester adduct (BostonBiochem) in 1× assay buffer) were prepared. 4 μL of 2× enzyme solution was added to each well containing compound, briefly centrifuged to mix, and incubated for 60 min at room temperature. 4 μL of 2× kinase mixture was added, briefly centrifuged to mix, and incubated for 90 min. at room temperature. 6 μL of detection mixture was added to all wells and briefly centrifuged before incubating for 20 min at room temperature. Plates were read for TR-FRET using an Envision at excitation 340 nm, emission at 615 and 665 nm, 4 flashes per well. IC50 was generated using no LCK as the low control and DMSO as the high control.
c-Cbl, sequence (P22681 47-435): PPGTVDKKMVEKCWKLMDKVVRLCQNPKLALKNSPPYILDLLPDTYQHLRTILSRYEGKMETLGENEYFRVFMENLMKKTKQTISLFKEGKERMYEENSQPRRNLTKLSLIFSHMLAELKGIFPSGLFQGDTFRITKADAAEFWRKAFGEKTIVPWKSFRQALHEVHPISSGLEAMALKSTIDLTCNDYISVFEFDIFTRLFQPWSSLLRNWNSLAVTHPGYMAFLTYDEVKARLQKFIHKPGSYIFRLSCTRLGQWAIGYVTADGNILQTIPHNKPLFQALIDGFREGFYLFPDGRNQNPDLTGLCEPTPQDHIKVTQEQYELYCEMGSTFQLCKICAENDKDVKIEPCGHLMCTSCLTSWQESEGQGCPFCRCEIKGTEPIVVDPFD
(§2) Cbl-b Lck HTRF data in Table 3 is measured according to Example 25 herein; C-cbl Lck HTRF data is measured according to Example 25 herein.
(§3) SPR and the LCK biochemical assay are orthogonal assays: SPR is a protein binding assay while the LCK assay is an enzyme activity assay. SPR measures compound binding affinity to CBL-B/C-CBL, whereas LCK assay measures compound inhibition of CBL-B/C-CBL ubiquitin transfer activity.
For orientation: TR-FRET usually uses a lanthanide donor and a delayed reading to cut background.

The target in a further assay is Cbl-b (Homo sapiens (Human), UniProt Q13191). Kind of assay: Cbl-b LCK Ub TR-FRET assay (Cbl-b Lck HTRF). In kind it is biochemical. The conditions noted are these: for (fold-selectivity): Cbl-b and C-Cbl selectivity, Lck HTRF; for IC50: read-out: Cbl-b Lck HTRF IC50. As to the method: as §1, §2, §3
Cbl-b, sequence (Q13191 40-426): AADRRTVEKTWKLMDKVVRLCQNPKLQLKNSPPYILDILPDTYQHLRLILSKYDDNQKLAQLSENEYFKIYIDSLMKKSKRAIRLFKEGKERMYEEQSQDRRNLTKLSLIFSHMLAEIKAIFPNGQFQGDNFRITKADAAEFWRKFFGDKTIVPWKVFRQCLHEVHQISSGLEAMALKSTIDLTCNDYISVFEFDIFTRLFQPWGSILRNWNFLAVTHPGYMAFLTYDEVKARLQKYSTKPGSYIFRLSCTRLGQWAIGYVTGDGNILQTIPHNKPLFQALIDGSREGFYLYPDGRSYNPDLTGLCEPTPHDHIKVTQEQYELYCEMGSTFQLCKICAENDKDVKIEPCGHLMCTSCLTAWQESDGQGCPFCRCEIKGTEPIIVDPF

The term IC50 denotes the concentration that gives 50% inhibition. Take `CN(C)Cc1cc(C(=O)Nc2cccc(C3(Cc4nncn4C)COC3)c2)nc(C(F)(F)F)c1` [Compound 67, 4-((dimethylamino)methyl)-N-(3-(3-((4-methyl-4H-1,2,4-triazol-3-yl)methyl)oxetan-3-yl)phenyl)-6-(trifluoromethyl)picolinamide]: at c-Cbl, the IC50 came out at 0.34 µM. At Cbl-b, the “(fold-selectivity)” value is “(1.6x)” and the IC50 stood at 0.21 µM.

In turn, `Cn1cnnc1CC1(c2cccc(NC(=O)c3cc(CN4CCC5(CC5)C4)cc(C(F)(F)F)n3)c2)COC1` [Compound 98, 4-((5-azaspiro[2.4]heptan-5-yl)methyl)-N-(3-(3-((4-methyl-4H-1,2,4-triazol-3-yl)methyl)oxetan-3-yl)phenyl)-6-(trifluoromethyl)picolinamide] displayed an IC50 against c-Cbl of 0.078 µM. At Cbl-b, the “(fold-selectivity)” value was “(1.8x)” and the IC50 is 0.044 µM.

Compound `C[C@@H](c1cc(C(=O)Nc2cccc(C3([C@@H](F)c4nncn4C)COC3)c2)nc(C2CC2)c1)N1CC(C)(F)C1` [Compound 112, 6-cyclopropyl-N-(3-(3-((R)-fluoro(4-methyl-4H-1,2,4-triazol-3-yl)methyl)oxetan-3-yl)phenyl)-4-((S)-1-(3-fluoro-3-methylazetidin-1-yl)ethyl)picolinamide] displayed an IC50 at c-Cbl of 0.21 µM. Besides, on Cbl-b, the “(fold-selectivity)” value is “(0.94x)” and the IC50 was found to be 0.23 µM.

On c-Cbl, `C[C@H](c1cc(C(=O)Nc2cccc(C3([C@@H](F)c4nncn4C)COC3)c2)nc(C2CC2)c1)N1CC(C)(F)C1` [Compound 113, 6-cyclopropyl-N-(3-(3-((R)-fluoro(4-methyl-4H-1,2,4-triazol-3-yl)methyl)oxetan-3-yl)phenyl)-4-((R)-1-(3-fluoro-3-methylazetidin-1-yl)ethyl)picolinamide] returned an IC50 of 0.027 µM. Besides, on Cbl-b, the “(fold-selectivity)” value is recorded as “(1.2x)” and the IC50 worked out at 0.021 µM.

For the compound `C[C@@H](c1cc(C(=O)Nc2cccc(C3([C@H](F)c4nncn4C)COC3)c2)nc(C2CC2)c1)N1CC(C)(F)C1` [Compound 114, 6-cyclopropyl-N-(3-(3-((S)-fluoro(4-methyl-4H-1,2,4-triazol-3-yl)methyl)oxetan-3-yl)phenyl)-4-((S)-1-(3-fluoro-3-methylazetidin-1-yl)ethyl)picolinamide], the half-inhibitory concentration (IC50) at c-Cbl came to 0.22 µM; on Cbl-b it was 0.29 µM. In addition, the “(fold-selectivity)” value on Cbl-b was “(0.76x)”.

Regarding `C[C@H](c1cc(C(=O)Nc2cccc(C3([C@H](F)c4nncn4C)COC3)c2)nc(C2CC2)c1)N1CC(C)(F)C1` [Compound 115, 6-cyclopropyl-N-(3-(3-((S)-fluoro(4-methyl-4H-1,2,4-triazol-3-yl)methyl)oxetan-3-yl)phenyl)-4-((R)-1-(3-fluoro-3-methylazetidin-1-yl)ethyl)picolinamide], half-maximal inhibition against c-Cbl (IC50) required 0.056 µM. In addition, on Cbl-b, the “(fold-selectivity)” value is “(1.1x)” and the IC50 was 0.05 µM.

Turning to `C[C@H](Cc1nncn1C)c1cccc(NC(=O)c2nc(C(F)(F)F)cn2C)c1` [Compound 121, (R)-1-methyl-N-(3-(1-(4-methyl-4H-1,2,4-triazol-3-yl)propan-2-yl)phenyl)-4-(trifluoromethyl)-1H-imidazole-2-carboxamide], the IC50 on c-Cbl was 2.9 µM. In addition, on Cbl-b, the “(fold-selectivity)” value is reported as “(0.67x)” and the IC50 was determined as 4.4 µM.

As to `C[C@H](Cc1nncn1C)c1cccc(NC(=O)c2nc(C3CC3)c[nH]2)c1` [Compound 122, (R)-4-cyclopropyl-N-(3-(1-(4-methyl-4H-1,2,4-triazol-3-yl)propan-2-yl)phenyl)-1H-imidazole-2-carboxamide], half-maximal inhibition against c-Cbl (IC50) was put at 2.2 µM. Also, at Cbl-b, the “(fold-selectivity)” value is “(0.79x)” and the IC50 was 2.8 µM.

With `Cn1cnnc1CC1(c2cccc(NC(=O)c3nc(C(F)(F)F)c[nH]3)c2)COC1` [Compound 123, N-(3-(3-((4-methyl-4H-1,2,4-triazol-3-yl)methyl)oxetan-3-yl)phenyl)-4-(trifluoromethyl)-1H-imidazole-2-carboxamide], on c-Cbl, the IC50 was 1.8 µM. For the same compound, on Cbl-b, the “(fold-selectivity)” value is recorded as “(0.77x)” and the IC50 was 2.3 µM.

On c-Cbl, `Cn1cnnc1C(F)C1(c2cccc(NC(=O)c3nc(C(F)(F)F)c[nH]3)c2)COC1` (stereo not drawn) [Compound 124, N-(3-(3-(fluoro(4-methyl-4H-1,2,4-triazol-3-yl)methyl)oxetan-3-yl)phenyl)-4-(trifluoromethyl)-1H-imidazole-2-carboxamide] showed an IC50 of 3.9 µM. Further, at Cbl-b, the “(fold-selectivity)” value is “(1.1x)” and the IC50 was determined as 3.7 µM.

`CC(C)[C@H]1CN(C)CCN1Cc1cc(C(=O)Nc2cccc(C3([C@H](F)c4nncn4C)CC(F)(F)C3)c2)nc(C2CC2)c1` [Compound 223, 6-cyclopropyl-N-(3-(3,3-difluoro-1-((S)-fluoro(4-methyl-4H-1,2,4-triazol-3-yl)methyl)cyclobutyl)phenyl)-4-(((S)-2-isopropyl-4-methylpiperazin-1-yl)methyl)picolinamide] had an IC50 on c-Cbl of 0.011 µM. For the same compound, on Cbl-b, the “(fold-selectivity)” value is “(1.0x)” and the IC50 turned out to be 0.011 µM.

With `CC(C)[C@H]1CN(C)CCN1Cc1cc(C(=O)Nc2cccc(C3([C@@H](F)c4nncn4C)CC(F)(F)C3)c2)nc(C2CC2)c1` [Compound 225, 6-cyclopropyl-N-(3-(3,3-difluoro-1-((R)-fluoro(4-methyl-4H-1,2,4-triazol-3-yl)methyl)cyclobutyl)phenyl)-4-(((S)-2-isopropyl-4-methylpiperazin-1-yl)methyl)picolinamide], the IC50 at c-Cbl turned out to be 0.0084 µM. Moreover, on Cbl-b, the “(fold-selectivity)” value is “(1.2x)” and the IC50 worked out at 0.0071 µM.

As for `Cn1cnnc1CC1(c2cccc(NC(=O)c3cc(CN4CC(C)(O)C4)cc(C4CC4)n3)c2)CC(F)(F)C1` [Compound 495, 6-cyclopropyl-N-(3-(3,3-difluoro-1-((4-methyl-4H-1,2,4-triazol-3-yl)methyl)cyclobutyl)phenyl)-4-((3-hydroxy-3-methylazetidin-1-yl)methyl)picolinamide], inhibition on c-Cbl was half-maximal at 0.012 µM (IC50). Further, at Cbl-b, the “(fold-selectivity)” value is “(0.68x)” and the IC50 worked out at 0.017 µM.

Take `Cn1cnnc1CC1(c2cccc(NC(=O)c3cc(CN4CC(C)(CO)C4)cc(C4CC4)n3)c2)CC(F)(F)C1` [Compound 496, 6-cyclopropyl-N-(3-(3,3-difluoro-1-((4-methyl-4H-1,2,4-triazol-3-yl)methyl)cyclobutyl)phenyl)-4-((3-(hydroxymethyl)-3-methylazetidin-1-yl)methyl)picolinamide]: the IC50 against c-Cbl was 0.01 µM. Also, at Cbl-b, the “(fold-selectivity)” value is reported as “(0.76x)” and the IC50 is 0.013 µM.

Consider `Cn1cnnc1[C@H](F)C1(c2cccc(NC(=O)c3cc(CN4CC(C)(CO)C4)cc(C4CC4)n3)c2)CC(F)(F)C1` [Compound 497, (R)-6-cyclopropyl-N-(3-(3,3-difluoro-1-(fluoro(4-methyl-4H-1,2,4-triazol-3-yl)methyl)cyclobutyl)phenyl)-4-((3-(hydroxymethyl)-3-methylazetidin-1-yl)methyl)picolinamide], for which the IC50 on c-Cbl came to 0.033 µM; at Cbl-b, 0.034 µM. The “(fold-selectivity)” value at Cbl-b is recorded as “(0.95x)”.

`CC(C)[C@H]1CN(C)CCN1Cc1cc(C(=O)Nc2cccc(C3(Cc4nncn4C)COC3)c2)nc(C2CC2)c1` [Compound 498, (S)-6-cyclopropyl-4-((2-isopropyl-4-methylpiperazin-1-yl)methyl)-N-(3-(3-((4-methyl-4H-1,2,4-triazol-3-yl)methyl)oxetan-3-yl)phenyl)picolinamide] registered a concentration for half-maximal inhibition (IC50) against c-Cbl of 0.0062 µM. Moreover, at Cbl-b, the “(fold-selectivity)” value is on record as “(0.62x)” and the IC50 was 0.01 µM.

`CC(C)[C@H]1CN(C)CCN1Cc1cc(C(=O)Nc2cccc(C3([C@@H](F)c4nncn4C)COC3)c2)nc(C2CC2)c1` [Compound 499, 6-cyclopropyl-N-(3-(3-((R)-fluoro(4-methyl-4H-1,2,4-triazol-3-yl)methyl)oxetan-3-yl)phenyl)-4-(((S)-2-isopropyl-4-methylpiperazin-1-yl)methyl)picolinamide] came in with an IC50 against c-Cbl of 0.007 µM. Besides, at Cbl-b, the “(fold-selectivity)” value is “(0.63x)” and the IC50 turned out to be 0.011 µM.

As for `CC(C)[C@H]1CN(C)CCN1Cc1cc(C(=O)Nc2cccc(C3([C@H](F)c4nncn4C)COC3)c2)nc(C2CC2)c1` [Compound 500, 6-cyclopropyl-N-(3-(3-((S)-fluoro(4-methyl-4H-1,2,4-triazol-3-yl)methyl)oxetan-3-yl)phenyl)-4-(((S)-2-isopropyl-4-methylpiperazin-1-yl)methyl)picolinamide], the IC50 against c-Cbl was determined as 0.008 µM. For the same compound, at Cbl-b, the “(fold-selectivity)” value is “(0.82x)” and the IC50 came to 0.0099 µM.
